Data set [1] relates to OVX rats. The data set is described as follows: Lumbar spine (L4-L5) BMD in OVX rats. The data set is classed as in vivo, Sprague–Dawley rats (female). The note with it: once daily s.c. for 28 days, BMD on day 26 (PIXImus2), vs OVX, n = 8 or 9. The text has this:
(§1) Ten-week-old female Sprague–Dawley rats were purchased from Charles River Laboratories Japan, Inc. (Kanagawa, Japan) and ovariectomized at 12 weeks old. Thirty-five days after surgery, rats received once daily subcutaneous injection of ABL, TPTD, or vehicle (saline containing 0.1% heat-inactivated rat serum) for 28 days. Day 0 indicates the day when administration was started. On day 26, rats were anesthetized with intraperitoneally administered pentobarbital sodium and the lumbar spine (L4 and L5) BMD was measured with a PIXImus2 (GE Healthcare, Chicago, IL). Blood (collected from the tail vein) and urine samples were obtained on day 28. Prior to collection, rats were fasted for 15–17 h. Rats were euthanized after the blood and urine collection, and the lumbar spine was removed for the measurement of bone strength. All experimental procedures were approved by the Animal Care and Use Committee of Teijin Institute for Bio-Medical Research.

The test system of data set [2] is OVX rats. The data set is described as follows: Bone formation marker serum P1NP in OVX rats. It is filed as in vivo, Sprague–Dawley rats (female). The note with it: once daily s.c., day 28, vs OVX, n = 8 or 9.
Excerpt: as §1
(§2) Serum P1NP concentration was measured with a Rat/Mouse PINP EIA kit (Immunodiagnostic Systems, Boldon, UK). Urine DPD concentration was measured with an Osteolinks DPD kit (Quidel, San Diego, CA, USA). Urine creatinine (Cr) concentration was measured with a 7180 Autoanalyzer (Hitachi High-Technologies Corporation, Tokyo, Japan).

Data set [3] relates to OVX rats. The data set is described as follows: Bone resorption marker urine DPD/Cr in OVX rats. The data set is classed as in vivo, Sprague–Dawley rats (female). The note with it: once daily s.c.; for urinary DPD/Cr at 5.0 nmol/kg: day 28; for urinary DPD/Cr, significance: day 28, n = 8 or 9.
Excerpt: as §1, §2

Data set [4] has as its system osteocyte-like SaOS-2. Briefly: WNT signaling antagonist gene expression (qRT-PCR). The note with it: 100 nmol/L, n = 3; for DKK1 (gene expression and protein secretion) / sclerostin (gene expression and protein secretion): continuous treatment (Fig. 4e, f), qRT-PCR and ELISA; for DKK1 gene expression / sclerostin gene expression: treatment limited to first 6 h (Fig. 4c), day 30 cells. The data set is classed as cell-based, human. On the procedure:
(§3) SaOS-2 was cultured in 48-well plates at a density of 5 × 10^4 cells/well in DM for 30 days. Cells were treated with ABL and TPTD at a concentration of 100 nmol/L. Six hours after treatment, cells were washed with PBS twice, and cultured with peptide-free or peptide-containing medium for the rest of the experimental period.
Cells were lysed and total RNA was extracted using an RNeasy Mini Kit (Qiagen, Valencia, CA, USA). RNA was reverse-transcribed into cDNA using the SuperScript III First-Strand Synthesis System for RT-PCR (Invitrogen, Carlsbad, CA, USA). Quantitative RT-PCR was performed on a 7500 Real-Time PCR System (Applied Biosystems) using Power SYBR Green PCR Master Mix (Thermo Fisher Scientific, Waltham, MA, USA). The primers used in this study were as follows: 5′-CGATGGTGGATGGCTCATG-3′ (forward) and 5′-ACCAGATGGGATGTCGGTG-3′ (reverse) for RANKL, 5′-[…]-3′ (forward) and 5′-[…]-3′ (reverse) for M-CSF, 5′-[…]-3′ (forward) and 5′-[…]-3′ (reverse) for OPG, 5′-[…]-3′ (forward) and 5′-[…]-3′ (reverse) for IGF1, 5′-[…]-3′ (forward) and 5′-[…]-3′ (reverse) for osteocalcin, 5′-[…]-3′ (forward) and 5′-[…]-3′ (reverse) for DMP1, 5′-[…]-3′ (forward) and 5′-[…]-3′ (reverse) for SOST, 5′-[…]-3′ (forward) and 5′-[…]-3′ (reverse) for DKK1, 5′-GTGAAGGTCGGAGTCAACG-3′ (forward) and 5′-TGAGGTCAATGAAGGGGTC-3′ (reverse) for GAPDH.

For data set [5], the system named is osteocyte-like SaOS-2. Briefly: Sclerostin and DKK1 protein secretion (ELISA). It is filed as cell-based, human. The note with it: 100 nmol/L, transient (Fig. 4d); efficacies of ABL and TPTD not significantly different; n = 3. The method, then:
as §3
Human Quantikine M-CSF, Sclerostin, and DKK1 ELISA kits (R&D Systems, Minneapolis, MN, USA) were used to quantify M-CSF, sclerostin, and DKK1, respectively, in the cell supernatants according to the manufacturer’s instructions.
In general terms: ELISA stands for enzyme-linked immunosorbent assay.

Another data set has as its system cAMP and PKC. The note with it: ref [24]; cited from earlier work. The text has this:
There is another possibility that the two peptides could show the different activity on protein kinase C (PKC). PKC is the downstream signal of PTH1R and is involved in the stimulation of bone resorption-related factors and bone catabolism. In fact, ostabolin, an amidated form of human PTH(1–31), differs from PTH(1–34) in PKC activation.

Another data set deals with osteocytes. The note with it: ref [11], [12]; cited from earlier work. The text has this: The mechanism of action of TPTD on bone turnover is not fully understood; however, many studies have examined the molecular mechanisms in recent decades. According to a previous study, PTH(1–34) acts on osteoblasts and indirectly induces bone resorption by activating osteoclasts. PTH(1–34) increases the expression of receptor activator of nuclear factor kappa-B ligand (RANKL) and macrophage colony-stimulating factor (M-CSF) and decreases the expression of osteoprotegerin (OPG), a decoy receptor of RANKL [9]. These effects of PTH(1–34) further promote the maturation of osteoclasts with ... || Finally, we evaluated the effects of ABL on WNT signaling antagonists. WNT signaling antagonists such as sclerostin and DKK1 are secreted from osteocytes. They inhibit bone formation by antagonizing canonical WNT ligands and subsequently suppress WNT-mediated signaling pathways. […] We therefore evaluated the effects of ABL on WNT signaling antagonists in comparison with TPTD. It is generally known that human osteocytes have been diffic ...

For data set [6] the following is noted: cited from earlier work.
The test system of data set [7] is patients with osteoporosis. The note with it: cited from earlier work.
Setting [8] is: subcutaneous injection, ref [14].

Read-outs that look alike come from different tables or passages of the source.

For human PTH(1–34) [Teriparatide], in the data set with OVX rats [1], the “lumbar spine BMD” value is on record as “significantly increased”. The “serum P1NP” value with OVX rats [2] is on record as “significantly increased”. Further, in the data set on OVX rats [3], the “urinary DPD/Cr at 5.0 nmol/kg” value is “a slight increase” and the “urinary DPD/Cr, significance” value is listed as “no significant differences”. Also, in the data set with osteocyte-like SaOS-2 [4], the “DKK1 (gene expression and protein secretion)” value is “similarly inhibited”; the “sclerostin (gene expression and protein secretion)” value is listed as “similarly inhibited”; the DKK1 gene expression result is “similarly suppressed”; the sclerostin gene expression result is on record as “similarly suppressed”. Besides, in the data set with osteocyte-like SaOS-2 [5], the DKK1 protein secretion entry was “inhibited” and the sclerostin protein secretion result is on record as “inhibited”. In addition, in the data set on cAMP and PKC, the “cAMP accumulation and PKC activation” value was “stimulated both cAMP and PKC”. In addition, in the data set with osteocytes, the “expression of WNT signaling antagonists in osteocytes” value is reported as “inhibited”; the “secretion of WNT signaling antagonists such as sclerostin and DKK1” value was “inhibiting”. Besides, in data set [6] (subcutaneous injection, ref [27], [28]), the half-life in humans result was “approximately an hour or less”.
On to “[Glu^22,25, Leu^23,28,31, Aib^29, Lys^26,30] human PTHrP(1–34)–NH2 [Abaloparatide]”, for which the “lumbar spine BMD” value in the data set with OVX rats [1] was “significantly increased”. The “serum P1NP” value in the data set with OVX rats [2] is “significantly increased”. Moreover, in the data set on OVX rats [3], the “urinary DPD/Cr at 5.0 nmol/kg” value is given as “a slight increase” and the “urinary DPD/Cr, significance” value was “no significant differences”. In the data set on osteocyte-like SaOS-2 [4], the “DKK1 (gene expression and protein secretion)” value is reported as “similarly inhibited”; the “sclerostin (gene expression and protein secretion)” value is reported as “similarly inhibited”; the DKK1 gene expression result was “similarly suppressed”; the sclerostin gene expression entry is on record as “similarly suppressed”. In addition, in the data set on osteocyte-like SaOS-2 [5], the DKK1 protein secretion entry is on record as “inhibited” and the sclerostin protein secretion entry is “inhibited”. Moreover, in data set [7] (daily subcutaneous, ref [14]), the “BMD at the hip and spine” value is reported as “robust BMD increases”; the “incidence of vertebral and non-vertebral fractures” value is given as “reduced incidence”. Moreover, the “calcemic effect vs TPTD” value in [7] (human, in vivo, sc) was “reduced as compared with TPTD”. Further, in [7] (ref [14]), the “bone formation and resorption markers” value is “increased both bone formation and resorption”; the “bone formation and resorption markers vs TPTD” value is “attenuated as compared with TPTD”. Also, in data set [7] (setting [8]), the bone formation marker result is reported as “increased” and the “bone resorption marker vs TPTD” value is “less stimulation of the bone resorption marker than observed for TPTD”. Further, in data set [6] (human, in vivo, sc), the half-life in humans result was “approximately an hour or less”.

(Values after PMC6105163, “Abaloparatide Exerts Bone Anabolic Effects with Less Stimulation of Bone Resorption-Related Factors: A Comparison with Teriparatide” (Calcified Tissue International, 2018).)
